Measured values taken from patent US9464055B2, “Quinoline derivatives useful as CB-1 inverse agonists” (JANSSEN PHARMACEUTICA NV, priority 2014, dated 2016).
pEC50: −log10 of the molar value.

These compounds were tested against T1, Human CB2R (Cannabinoid receptor 2) (Homo sapiens, UniProt P34972) (assay: CB-2 in vitro cAMP (HTRF) functional assay). Conditions: mean where tested more than once.
T1 construct: host or cells: HEK-293
Type: cell-based
From the text: CB1 and CB2 receptors are Gi-coupled GPCR. Activation of CB1 and CB2 receptors results in a decrease in cAMP production. An inverse agonist of the CB1 or CB2 receptor results in the opposite effect, an increase of cAMP production. The principle of this assay is based on HTRF® technology (Homogeneous Time-Resolved Fluorescence). The method is a competitive immunoassay between native cAMP produced by cells and the cAMP labeled with the fluorophore d2. The tracer binding is quantified by a Mab anti-cAMP labeled with Eu3+ TBP-NHS Cryptate (supplied as part of the assay kit). The specific signal (i.e. energy transfer) is inversely proportional to the concentration of cAMP in the standard or sample.
Human CB1R (Cannabinoid receptor 1) was stably transfected in HEK-293 cells (DiscoveRx, cat: 93-0200C1). Human CB2R (Cannabinoid receptor 2) was stably transfected in HEK-293 cells (DiscoveRx, cat: 93-0201C1). Cell cultures were maintained in media: DMEM (Invitrogen Cat#12430-054) supplemented with 10% HI FBS (Invitrogen Cat#16140-071), 1% L-glutamine (Invitrogen Cat#25030-081), 0.2 mg/ml Hygromycin B (Invitrogen Cat#10687-010), 600 μg/mL G418 (Invitrogen Cat#10131-035), and 1× Penn/Strep (Invitrogen 15140-122). After cell expansion, aliquots were cryo-stored in media containing 5% DMSO (Pierce Cat#20684).
One day prior to experiments media was warmed to 37° C. and the cryo-stored cells were thawed in a 37° C. water bath. The cells were then added to media (10× volume) and the mixture was centrifuged at 1000 RPM for 5 min. The supernate was removed and the cells were re-suspended in media. A sample of the cell suspension was evaluated on a Cedex XS automated cell counter (Innovatis Systems) to determine viable cells/ml. Additional media was added to the cells to achieve a final cell density of 4E5 cells/mL. The cells were then plated into 384 well PDL white solid bottom plates (Greiner, Cat#781945) at 20 μL per well using a Multidrop (Thermo Scientific). Cells were removed from Row P (location of cAMP standards). Two columns of cells were plated into a clear bottom 384 well PDL coated plate (Greiner, Cat#781944) to view confluence the day of the assay. The cell plates were lidded and stored for 15 minutes in a hood, then transferred to an incubator (37° C., 5% CO2, 95% humidity) overnight.
DMSO was added to all wells of 384 well V bottom polystyrene plate (Greiner, Cat#781280) except to columns 1 and 13, rows O and P and wells M13-M23 and N13-N23. Test compounds (60 μL, 10 mM) were added to Column 1 and 13 (A1 through N1 and A13 through L13). Test compounds were serially diluted 1/3 by transferring and mixing 20 μl sample with 40 μL DMSO.
DMSO (40 μL) was added to wells of 384 well V bottom polystyrene plate: O2 through O11, M14 through M23, N14 through N23, and O14 through O23. AM630 (also known as [6-iodo-2-methyl-1-[2-(4-morpholinyl)ethyl]-1H-indol-3-yl](4-methoxyphenyl)-methanone, Cayman Chemical, Cat#10006974) (60 μL, 10 mM) was added to O1; and 1-(2,4-dichlorophenyl)-7-[(4-fluorophenyl)methylene]-4,5,6,7-tetrahydro-N-1-piperidinyl-1H-indazole-3-carboxamide (60 μL, 10 mM) was added to N13. The control was serially diluted 1/3 by transferring and mixing 20 μl sample with 40 μL DMSO. This process resulted 11 doses per control, 10 mM to […].
Cells plated the day prior to the assay in clear bottom plates were viewed on an inverse microscope to ensure confluency in the range of 60-75%. […]

T1 sequence (P34972 whole entry): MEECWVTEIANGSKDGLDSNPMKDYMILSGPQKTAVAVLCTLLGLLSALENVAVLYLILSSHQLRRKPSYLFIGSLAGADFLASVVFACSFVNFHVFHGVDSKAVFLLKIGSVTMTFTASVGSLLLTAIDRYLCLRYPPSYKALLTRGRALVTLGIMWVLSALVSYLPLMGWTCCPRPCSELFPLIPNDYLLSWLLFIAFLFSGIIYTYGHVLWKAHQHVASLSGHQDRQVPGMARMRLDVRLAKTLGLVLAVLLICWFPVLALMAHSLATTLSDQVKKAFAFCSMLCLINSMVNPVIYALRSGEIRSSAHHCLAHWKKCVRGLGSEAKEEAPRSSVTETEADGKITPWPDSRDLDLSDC

Row | Structure (SMILES) | pEC50
1 | NC(=O)CCCOc1ccc(Nc2cc(=O)[nH]c3ccc(C(c4ccc(Cl)cc4)c4ccc(Cl)cc4)cc23)cc1 [Compound 123, 4-[4-({6-[Bis(4-chlorophenyl)methyl]-2-oxo-1,2-dihydroquinolin-4-yl}amino)phenoxy]butanamide] | < 5.00
2 | NC(=O)Cn1c(=O)cc(NC2CCN(S(=O)(=O)C(F)(F)F)CC2)c2cc(C(c3ccc(Cl)cc3)c3ccc(Cl)cc3)ccc21 [Compound #90, 2-(6-(bis(4-chlorophenyl)methyl)-2-oxo-4-((1-((trifluoromethyl)sulfonyl)piperidin-4-yl)amino)quinolin-1 (2H)-yl)acetamide] | < 5.00
3 | NC(=O)c1ccc(Nc2cc(=O)[nH]c3ccc(C(c4ccc(Cl)cc4)c4ccc(Cl)cc4)cc23)cc1 [Compound 87, 4-({6-[Bis(4-chlorophenyl)methyl]-2-oxo-1,2-dihydroquinolin-4-yl}amino)benzamide] | < 5.00
4 | O=c1cc(NCc2ccc(C(F)(F)F)cn2)c2cc(C(c3ccc(Cl)cc3)c3ccc(Cl)cc3)ccc2[nH]1 [Compound 78, 6-[Bis(4-chlorophenyl)methyl]-4-({[5-(trifluoromethyl)pyridin-2-yl]methyl}amino)quinolin-2(1H)-one] | < 5.00
5 | CCOC(=O)CCCNc1cc(C(c2ccc(Cl)cc2)c2ccc(Cl)cc2)cc2c(NC3CCN(S(=O)(=O)C(F)(F)F)CC3)cc(=O)[nH]c12 [Compound 104, Ethyl 4-({6-[bis(4-chlorophenyl)methyl]-2-oxo-4-({1-[(trifluoromethyl)sulfonyl]piperidin-4-yl}amino)-1,2-dihydroquinolin-8-yl}amino)butanoate] | < 5.00
6 | O=c1cc(NC2CCN(CC(F)(F)F)CC2)c2cc(C(c3ccc(Cl)cc3)c3ccc(Cl)cc3)ccc2[nH]1 [Compound #77, 6-(bis(4-chlorophenyl)methyl)-4-((1-(2,2,2-trifluoroethyl)piperidin-4-yl)amino)quinolin-2(1H)-one] | < 5.00
7 | COCCOc1ccc(Nc2cc(=O)[nH]c3ccc(C(c4ccc(Cl)cc4)c4ccc(Cl)cc4)cc23)cc1 [Compound 94, 6-[Bis(4-chlorophenyl)methyl]-4-{[4-(2-methoxyethoxy)phenyl]amino}quinolin-2(1H)-one] | < 5.00
8 | O=C(O)Cc1ccc(Nc2cc(=O)[nH]c3ccc(C(c4ccc(Cl)cc4)c4ccc(Cl)cc4)cc23)cc1 [Compound 125, [4-({6-[Bis(4-chlorophenyl)methyl]-2-oxo-1,2-dihydroquinolin-4-yl}amino)phenyl]acetic acid] | < 5.00
9 | O=c1cc(NC2CCN(S(=O)(=O)N3CCCC3)CC2)c2cc(C(c3ccc(Cl)cc3)c3ccc(Cl)cc3)ccc2[nH]1 [Compound #81, 6-(bis(4-chlorophenyl)methyl)-4-((1-(pyrrolidin-1-ylsulfonyl)piperidin-4-yl)amino)quinolin-2(1H)-one] | < 5.00
10 | O=C(O)CN1CCC(Nc2cc(=O)[nH]c3ccc(C(c4ccc(Cl)cc4)c4ccc(Cl)cc4)cc23)CC1 [Compound 117, [4-({6-[Bis(4-chlorophenyl)methyl]-2-oxo-1,2-dihydroquinolin-4-yl}amino)piperidin-1-yl]acetic acid] | < 5.00
11 | O=C(O)CC(=O)N1CCC(Nc2cc(=O)[nH]c3ccc(C(c4ccc(Cl)cc4)c4ccc(Cl)cc4)cc23)CC1 [Compound 96, 3-[4-({6-[Bis(4-chlorophenyl)methyl]-2-oxo-1,2-dihydroquinolin-4-yl}amino)piperidin-1-yl]-3-oxopropanoic acid] | < 5.00
12 | O=C(O)CCC(=O)N1CCC(Nc2cc(=O)[nH]c3ccc(C(c4ccc(Cl)cc4)c4ccc(Cl)cc4)cc23)CC1 [Compound 98, 4-(4-((6-(bis(4-chlorophenyl)methyl)-2-oxo-1,2-dihydroquinolin-4-yl)amino)piperidin-1-yl)-4-oxobutanoic acid] | < 5.00
13 | O=C(O)COc1ccc(Nc2cc(=O)[nH]c3ccc(C(c4ccc(Cl)cc4)c4ccc(Cl)cc4)cc23)cc1 [Compound 109, 2-(4-((6-(bis(4-chlorophenyl)methyl)-2-oxo-1,2-dihydroquinolin-4-yl)amino)phenoxy)acetic acid] | < 5.00

Next, values leading:

Row | pEC50 | Structure (SMILES)
14 | < 5.00 | O=c1cc(NCc2ccc(C(F)(F)F)cc2)c2cc(C(c3ccc(Cl)cc3)c3ccc(Cl)cc3)ccc2[nH]1 [Compound 58, 6-[Bis(4-chlorophenyl)methyl]-4-{[4-(trifluoromethyl)benzyl]amino}quinolin-2(1H)-one]
15 | < 5.00 | NCCCCNc1cc(C(c2ccc(Cl)cc2)c2ccc(Cl)cc2)cc2c(NC3CCN(S(=O)(=O)C(F)(F)F)CC3)cc(=O)[nH]c12 [Compound 141, 8-((4-aminobutyl)amino)-6-(bis(4-chlorophenyl)methyl)-4-((1-((trifluoromethyl)sulfonyl)piperidin-4-yl)amino)quinolin-2(1H)-one]
16 | < 5.00 | NC(=O)COc1ccc(Nc2cc(=O)[nH]c3ccc(C(c4ccc(Cl)cc4)c4ccc(Cl)cc4)cc23)cc1 [Compound 111, 2-(4-((6-(bis(4-chlorophenyl)methyl)-2-oxo-1,2-dihydroquinolin-4-yl)amino)phenoxy)acetamide]
17 | < 5.00 | O=c1cc(Nc2ccc(Cl)c(F)c2)c2cc(C(c3ccc(Cl)cc3)c3ccc(Cl)cc3)ccc2[nH]1 [Compound 83, 6-[Bis(4-chlorophenyl)methyl]-4-[(4-chloro-3-fluorophenyl)amino]quinolin-2(1H)-one]
18 | < 5.00 | O=c1cc(NCc2ccc(C(F)(F)F)nc2)c2cc(C(c3ccc(Cl)cc3)c3ccc(Cl)cc3)ccc2[nH]1 [Compound #70, 6-(bis(4-chlorophenyl)methyl)-4-(((6-(trifluoromethyl)pyridin-3-yl)methyl)amino)quinolin-2(1H)-one]
19 | < 5.00 | CCS(=O)(=O)N1CCC(Nc2cc(=O)[nH]c3ccc(C(c4ccc(Cl)cc4)c4ccc(Cl)cc4)cc23)CC1 [Compound #56, 6-(bis(4-chlorophenyl)methyl)-4-((1-(ethylsulfonyl)piperidin-4-yl)amino)quinolin-2(1H)-one]
20 | < 5.00 | O=c1cc(NC2CCCCC2)c2cc(C(c3ccc(Cl)cc3)c3ccc(Cl)cc3)ccc2[nH]1 [Compound #71, 6-(bis(4-chlorophenyl)methyl)-4-(cyclohexylamino)quinolin-2(1H)-one]
21 | < 5.00 | O=C(O)CCCOc1ccc(Nc2cc(=O)[nH]c3ccc(C(c4ccc(Cl)cc4)c4ccc(Cl)cc4)cc23)cc1 [Compound 121, 4-[4-({6-[Bis(4-chlorophenyl)methyl]-2-oxo-1,2-dihydroquinolin-4-yl}amino)phenoxy]butanoic acid]
22 | < 5.00 | COCCn1c(=O)cc(NC2CCN(S(=O)(=O)C(F)(F)F)CC2)c2cc(C(c3ccc(Cl)cc3)c3ccc(Cl)cc3)ccc21 [Compound 110, 6-(bis(4-chlorophenyl)methyl)-1-(2-methoxyethyl)-4-((1-((trifluoromethyl)sulfonyl)piperidin-4-yl)amino)quinolin-2(1H)-one]
23 | < 5.00 | CC(C)(C)OC(=O)CCN1CCC(Nc2cc(=O)[nH]c3ccc(C(c4ccc(Cl)cc4)c4ccc(Cl)cc4)cc23)CC1 [Compound 114, tert-butyl 3-(4-((6-(bis(4-chlorophenyl)methyl)-2-oxo-1,2-dihydroquinolin-4-yl)amino)piperidin-1-yl)propanoate]
24 | < 5.00 | CCOC(=O)CS(=O)(=O)N1CCC(Nc2cc(=O)[nH]c3ccc(C(c4ccc(Cl)cc4)c4ccc(Cl)cc4)cc23)CC1 [Compound 102, ethyl 2-((4-((6-(bis(4-chlorophenyl)methyl)-2-oxo-1,2-dihydroquinolin-4-yl)amino)piperidin-1-yl)sulfonyl)acetate]
